Test results taken from PMC8229286, “Pharmacokinetics-Driven Evaluation of the Antioxidant Activity of Curcuminoids and Their Major Reduced Metabolites—A Medicinal Chemistry Approach” (Molecules, 2021).
In brackets after ≈: the same amount, converted by molar mass. Like-named read-outs stand apart in the source and are kept apart here.

Tests used:
[1] = DPPH free radical scavenging assay; conditions: 30 min, absorbance 550 nm; average ± S.E.M
Method: The DPPH free radical scavenging assay was performed based on the method of Fukumoto et al. with some modification. The measurement was performed on a 96-well microplate. Microdilution series of the samples (0.2 mg/mL stock solution, dissolved in HPLC grade MeOH) were made starting with 100 μL. To each well 100 μL of DPPH reagent (100 μM in HPLC grade MeOH) was added to gain the final volume of 200 μL. The microplates were kept in dark, and the absorbance was measured after 30 min at 550 nm using a FluoStar Optima plate reader (software version 2.20R2, BMG Labtech, Ortenberg, Germany). Methanol was used as blank. The scavenging activity was calculated as Inhibition (%) = (A0 − As)/A0 × 100, and EC50 values were calculated by Graph Pad Prism (GraphPad Software, Inc., La Jolla, CA, USA).

[2] = AAPH assay (oxygen radical absorbance capacity, ORAC); conditions: concentration for 50% antioxidant capacity; average ± S.E.M
Method: Antioxidant capacity measurement was carried out on 96-well microplates, based on oxygen radical absorbance capacity (ORAC) assay. A 20 μL aliquot of the sample (6 dilutions with buffer from 10 μg/mL stock solution dissolved in phosphate buffer, containing 1% MeOH), 120 μL of fluorescein (dissolved in phosphate buffer, pH = 7.4, 70 nM final concentration), and 60 μL of 2,2′-azobis(2-methylpropionamidine) dihydrochloride (AAPH, dissolved in phosphate buffer, pH = 7.4, 12 mM final concentration) were pipetted into each well. Each measurement was performed twice in duplicates. Each plate contained six dilutions of trolox as the standard, and phosphate buffer as blank. Flourescence (excitation at 485 nm and emission at 520 nm) was measured over a 3 h period with 1.5-min cycle intervals by a FluoStar Optima plate-reader (BMG Labtech GmbH). The antioxidant capacity was calculated for each concentration with the following formula: antioxidant capacity = (AUCAntioxidant − AUCBlank)/AUCBlank × 100 where AUC is the area under curve obtained for the sample and blank assays. Based on the linear correlation between the concentration of the samples and the antioxidant capacity, IC50 values could be obtained, which define the concentration (in µM) of each compound required to have 50% antioxidant capacity defined by the previous equation.

GI-PAMPA permeability = conditions: for GI-PAMPA MR (membrane retention) / GI-PAMPA Pe: PBS pH 7.4, 37 °C, 4 h; for Papp at 4 h, 100 µM: PAMPA, pH 7.4
Method: (§1) BBB and GI permeability was determined by using tissue-specific parallel artificial membrane permeability assay (GI-PAMPA [46], BBB-PAMPA [47]) models. Briefly, a 96-well acceptor plate and a 96-well filter plate were assembled into a sandwich. The hydrophobic filter material of the 96 well filter plate was coated by the mixture of phosphatidylcholine:cholesterol 2:1 (5 µL, 4 % (w/v) in dodecane: GI-PAMPA) or by porcine brain lipid (PBL) (5 µL, 2.6 % (w/v) in dodecane:hexane 25:75 v/v%: BBB-PAMPA). Subsequently, the acceptor wells at the bottom of the sandwich were filled with 300 µL of 10 mM PBS solution with 5% DMSO adjusted to pH 7.4. The donor wells at the top of the sandwich were hydrated with 150 µL of test compound solution. The test compound solutions were prepared in 100 times dilution. Firstly, a 10 mM stock solution was prepared from the corresponding compound in DMSO, then it was diluted with PBS (pH 6.5: GI-PAMPA or pH 7.4: BBB-PAMPA) to get 5% mixture followed by filtration through a MultiScreen Solubility filter plate. The resulting sandwich was then incubated at 37 °C for 4h. After the incubation, PAMPA sandwich plates were separated and compound concentrations in donor and acceptor solutions were investigated by HPLC-DAD. HPLC analyses were performed using a Shimadzu Prominence Modular HPLC system (Shimadzu Corporation, Kyoto, Japan) on a Kinetex® 2.6mm C18 100 Å LC column (30 × 3 mm) at 45 °C. Mobile phase flow rate was 1.1 mL/min using a gradient of AcN and 0.1% (v/v) formic acid in water (from 5% AcN to 95% in 2.5 min). Chromatograms were recorded at the wavelength of 200–500 nm, integration was carried out at the UVmax of each compound. The applied injection volume was 6 μL.

BBB-PAMPA permeability = conditions: for Papp at 4 h, 100 µM: PAMPA
Method: as §1

[3] = Kinetic solubility in PBS; conditions: for solubility kinetic at 2 h: PBS with 5% (v/v) DMSO, pH 7.4, aqueous with cosolvent or surfactant or cyclodextrin, kinetic from dmso stock; for Kinetic Solubility: after 2 h, at 37 °C in PBS, pH 7.4, mean ± S.E.M, n = 3
Method: (§2) Kinetic solubility was tested with 5% (v/v) DMSO as cosolvent in phosphate buffered saline (PBS, 0.01 M phosphate buffer pH 7.4, 0.138 M NaCl, 0.0027 M KCl, without Ca^2+, Mg^2+) at room temperature for 2 h. Chemical stability was tested with 10% (v/v) DMSO as cosolvent in PBS pH 7.4 at 37 °C for 4 h. Metabolic stability was investigated on human liver microsomes (1 mg/mL), which were preincubated with 25 µM test compounds for 5 min at 37 °C in 0.1 M Tris-HCl buffer, pH 7.4 contained 6.67 mM Na-pyrophosphate, 5.56 mM MgCl2, 5.56 mM glucose-6-phosfate, 4.63 U/mL glucose-6-phosphate dehydrogenase. The reaction was initiated by adding preincubated cofactor (37 °C,10 mM NADPH). After 10, 30, and 60 min incubation at 37 °C, the reaction was stopped by adding equal volume of cooled methanol (−20 °C). The samples were centrifuged at 20,000 g for 5 min. The supernatant and all above described test solutions were analyzed by LC-MS/MS. LC-MS analysis was carried out on an Agilent 1200 liquid chromatography system coupled with an 6410 QQQ-MS (Agilent Technologies, Palo Alto, CA, USA). Analysis was on a Cortecs C18 column (150 × 4.6 mm, 2.7 µm, Waters) at 40 °C, with a mobile phase flow rate of 1.45 mL/min. Composition of eluent A was 0.1% (v/v) trifluoroacetic acid (TFA) in water (pH 1.9). A linear gradient of 0–100% B (acetonitrile (AcN) and water in 95:5 (v/v)) was applied at a range of 0–17 min, then 100% B at 17–22 min. The injection volume was set at 20 µL and chromatograms were registered at 220 ± 4 nm. The MSD operating parameters in ESI positive ionization mode were as follows: scan ion mode (100–800 m/z), drying gas temperature 350 °C, nitrogen flow rate 12 L/min, nebulizer pressure 40 psi, quadrupole temperature 100 °C, capillary voltage 4000 V, fragmentor voltage 135 V.

[4] = Chemical stability in PBS pH 7.4; conditions: between 0–2 h at 37 °C in PBS, Stable = no chemical change detected during the evaluation time (4 h)
Method: as §2

[5] = Metabolic stability in human liver microsomes; conditions: for CLint scaled at 25 µM / half-life at 25 µM: human, human liver microsomes, pH 7.4; for Met.stab. in HLM t1/2: human liver microsomes 1 mg/mL, 25 µM compound, 37 °C, mean ± S.E.M, n = 3; for Met.stab. in HLM Cl'int: intrinsic clearance calculated from in vitro t1/2 data in HLM
Method: as §2

[6] = set-up: method as in PMID 17999464; conditions: cited from earlier work
[7] = Experimental logP in octanol-water and toluene-water systems; conditions: for ΔlogPoct_tol: logPo/w − logPtol/w; for logP at 24 h: octanol/water; for logPtol/w: toluene-water, average ± S.E.M, five parallel experiments
Method: Lipophilicity measurements of hydrocurcumins were performed by dissolving the compounds in the organic solvents (octanol and toluene) at 1mg/mL concentration and mixing them with water (1:5 and 1:10 ratios, each in five replicates). After 24 h the concentration of the compounds in the aqueous phase were calculated by using a calibration dilution series measured on RP-HPLC system. The concentration of the organic phase was calculated from the concentration of the aqueous phase.

[8] = pH 7.4
Method: as §2

[9] = microsomes
Method: as §2

[10] = pH 7.4; remark: listed apart in the source
Method: as §1

| Compound | IC50 [1] [µM] | IC50 [2] [µM] | GI-PAMPA MR (membrane retention) (GI-PAMPA permeability) [%] | GI-PAMPA Pe (GI-PAMPA permeability) | Papp at 4 h, 100 µM (BBB-PAMPA permeability) [×10⁻⁶ cm/s] | BBB-PAMPA MR (membrane retention) (BBB-PAMPA permeability; PBS pH 6.5→pH 7.4, 37 °C, 4 h) [%] | solubility kinetic at 2 h [3] [µM] | Chemical Stability Shelf-Life [4] | CLint scaled at 25 µM [5] [mL/min/kg] | half-life at 25 µM [5] [h] | Papp at 4 h, 100 µM (GI-PAMPA permeability) [×10⁻⁶ cm/s] | other results |
| --- | --- | --- | --- | --- | --- | --- | --- | --- | --- | --- | --- | --- |
| COc1cc(CCC(O)CC(O)CCc2ccc(O)cc2)ccc1O (stereo not shown) [8HDC, octahydro-demethoxycurcumin] | 33.1 ± 0.8 | 0.49 ± 0.29 | 1.7 ± 0.3 | 2.2 ± 0.1 * ·10^−7 cm/s | 0.53 ± 0.07 | 14.9 ± 1.9 | 68.7 ± 0.7 (≈ 23.8 µg/mL) | Stable ^# | 0.9 | 6.08 ± 0.957 | – | – |
| Cc1c(C)c2c(c(C)c1O)CCC(C)(C(=O)O)O2 (stereo not shown) [Trolox, reference compound] | 5.6 ± 0.1 | 2.02 ± 0.13 | – | – | – | – | – | – | – | – | – | – |
| Curcumin [reference compound] | 11.8 ± 0.1 | 0.32 ± 0.1 | 90.6 ± 0.3 | 5.0 ± 0.4 ·10^−7 cm/s | – | 96.7 ± 0.4 | – | 29.7 ± 0.6 min | – | – | – | Safe human consumption amount [6]: up to 12 g/day; Kinetic Solubility [3]: 3.1 ± 0.1 µM; Met.stab. in HLM t1/2 [5]: 1.18 ± 0.085 h; Met.stab. in HLM Cl'int [5]: 4.5 ± 0.3 mL/min/kg; Major metabolite identified in the microsomal system (LC-MS) ([5]; semi-qualitative, by m/z change and retention time, Table S1): 6HC as a major metabolite |
| COc1cc(CCC(O)CC(O)CCc2ccc(O)c(OC)c2)ccc1O (stereo not shown) [8HC, octahydrocurcumin] | 11.4 ± 1 | 0.43 ± 0.11 | 4.4 ± 0.2 | – | 0.97 ± 0.02 | 8.9 ± 1.4 | 72.9 ± 0.9 (≈ 27.4 µg/mL) | Stable ^# | 1.4 | 3.86 ± 0.56 | 0.24 ± 0.01 | ΔlogPoct_tol [7]: 0.75; logP at 24 h [7]: 2.3 ± 0.02; logPtol/w [7]: 1.55 ± 0.14 |
| tetrahydro-demethoxycurcumin [4HDC] | 14.2 ± 0.5 | 0.41 ± 0.03 | 12.9 ± 1.6 | 20.4 ± 0.3 * ·10^−7 cm/s | – | 40.9 ± 1.5 | – | Stable ^# | – | – | – | BBB-PAMPA Pe (BBB-PAMPA permeability; PBS pH 6.5→pH 7.4, 37 °C, 4 h): 20.7 ± 0.5 ·10^−7 cm/s; Kinetic Solubility [3]: 69.5 ± 3.1 µM; Met.stab. in HLM t1/2 [5]: 0.0722 ± 0.00033 h; Met.stab. in HLM Cl'int [5]: 72.0 ± 0.4 mL/min/kg |
| COc1cc(CCC(=O)CC(O)CCc2ccc(O)c(OC)c2)ccc1O (stereo not shown) [6HC, hexahydrocurcumin] | 9.9 ± 0.9 | 0.39 ± 0.06 | 5.0 ± 0.6 | – | 1.25 ± 0.01 | 13.3 ± 0.5 | 74.1 ± 0.3 (≈ 27.7 µg/mL) | Stable ^# | 3.3 | – | 0.37 ± 0.02 | ΔlogPoct_tol [7]: 0.46; logP at 24 h [7]: 2.15 ± 0.01; logPtol/w [7]: 1.69 ± 0.03 |
| tetrahydrocurcumin [4HC] | 9.8 ± 0.2 | 0.43 ± 0.04 | – | – | – | – | – | – | – | – | – | Kinetic Solubility [8]: 70.3 ± 0.2 µM; Met.stab. in HLM t1/2 ([9]; human): 4.34 ± 0.01 min; Met.stab. in HLM Cl'int [9]: 71.8 ± 0.1 mL/min/kg; BBB-PAMPA MR (membrane retention): 34.4 ± 0.6 %; BBB-PAMPA Pe (4 h, 100 µM): 31.3 ± 1.1 ·10^−7 cm/s; GI-PAMPA Pe ([10]; 4 h, 100 µM): 30.3 ± 1.3 * ·10^−7 cm/s; GI-PAMPA MR (membrane retention) [10]: 13.3 ± 0.4 % |
| COc1cc(/C=C/C(O)=C/C(=O)/C=C/c2ccc(O)cc2)ccc1O [DMC, demethoxycurcumin, reference compound] | 16.8 ± 0.7 | 0.49 ± 0.03 | 85.6 ± 0.5 | – | – | 98.3 ± 0.1 | 5.7 ± 0.9 (≈ 1.93 µg/mL) | 22.1 ± 0.2 min | 8.3 | 0.63 ± 0.015 | 1.06 ± 0.06 | – |
